Source: the supplement of paper PMC10307832

Experiments:
Test in all cases: relative viability (nuclei count vs DMSO), 5 days (fraction); higher = more cells survive
TGX 221 + Linsitinib = compound: CC1=CN2C(=O)C=C(N=C2C(=C1)C(C)NC3=CC=CC=C3)N4CCOCC4 [TGX 221] + C[C@]1(O)C[C@@H](c2nc(-c3ccc4ccc(-c5ccccc5)nc4c3)c3c(N)nccn32)C1 [Linsitinib] (partner 1 µM)
How it was run: (§1)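 Lung cancer cell lines were seeded in 1536-well plates and dosed by pin tool the next day, with either a single drug or a fixed anchor-drug dose combined with five library-drug doses (not always all listed) spaced in √10 steps. Five days later, one step fixed the cells and stained their nuclei (final 0.05% Triton X-100, 1% formaldehyde, 1 ug/ml Hoechst), and nuclei were counted on 4× images. Relative viability is the nuclei count in treated wells divided by the count in vehicle wells, and each value is the median of duplicate plates.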

[1] = compound: O=C(CCCCCCNC(=O)c1cnc(N(c2ccccc2)c2ccccc2)nc1)NO [Ricolinostat] + CCNC(=O)c1noc(-c2cc(C(C)C)c(O)cc2O)c1-c1ccc(CN2CCOCC2)cc1 [Luminespib] (partner 0.01 µM)
How it was run: as §1

Ricolinostat + OSI-027 = compound: O=C(CCCCCCNC(=O)c1cnc(N(c2ccccc2)c2ccccc2)nc1)NO [Ricolinostat] + COc1cccc2cc(-c3nc([C@H]4CC[C@H](C(=O)O)CC4)n4ncnc(N)c34)[nH]c12 [OSI-027] (partner 0.5 µM)
How it was run: as §1

[2] = compound: O=C(CCCCCCNC(=O)c1cnc(N(c2ccccc2)c2ccccc2)nc1)NO [Ricolinostat] + Nc1nc2[nH]cc(CCc3ccc(C(=O)N[C@@H](CCC(=O)O)C(=O)O)cc3)c2c(=O)[nH]1 [Pemetrexed] (partner 0.2 µM)
How it was run: as §1

Cell Line	relative viability (TGX 221 + Linsitinib; first compound 0.253 µM)	relative viability (TGX 221 + Linsitinib; first compound 0.8 µM)	relative viability (TGX 221 + Linsitinib; first compound 2.53 µM)	relative viability (TGX 221 + Linsitinib; first compound 8 µM)	relative viability ([1]; first compound 0.08 µM)	relative viability ([1]; first compound 0.253 µM)	relative viability ([1]; first compound 0.8 µM)	relative viability ([1]; first compound 2.53 µM)	relative viability (Ricolinostat + OSI-027; first compound 0.08 µM)	relative viability (Ricolinostat + OSI-027; first compound 0.253 µM)	relative viability (Ricolinostat + OSI-027; first compound 0.8 µM)	relative viability (Ricolinostat + OSI-027; first compound 2.53 µM)	relative viability ([2]; first compound 0.08 µM)	relative viability ([2]; first compound 0.253 µM)	relative viability ([2]; first compound 0.8 µM)	relative viability ([2]; first compound 2.53 µM)	relative viability (TGX 221 + Linsitinib; first compound 0.08 µM)
201T	0.957	0.995	0.909	0.824	0.94	1.04	1.09	1.08	0.631	0.707	0.7	0.92	0.339	0.314	0.334	0.311	–
A549	0.451	0.391	0.432	0.456	–	–	–	–	–	–	–	–	–	–	–	–	0.491
A-427	1.02	1.1	1.12	1.02	–	0.81	0.605	0.698	–	0.435	0.414	0.351	0.711	0.941	0.828	0.832	1.05
ABC-1	0.794	0.773	0.557	0.547	0.537	0.761	0.527	0.261	0.425	0.518	0.482	0.292	–	–	–	–	0.964
BEN	0.839	0.878	0.823	0.774	0.228	0.371	0.402	0.326	0.287	0.344	0.324	0.307	0.589	0.88	0.667	0.518	0.869
CAL-12T	0.72	0.758	0.513	0.626	0.497	0.378	0.542	0.303	0.412	0.717	0.617	0.715	0.884	1.15	1.28	1.37	0.803
COR-L23	0.847	0.964	0.732	0.881	0.518	0.571	0.661	0.427	0.595	0.756	0.789	0.409	0.199	0.212	0.188	0.17	0.883
COR-L 105	0.828	1.02	0.537	0.554	–	0.746	0.765	0.749	–	0.641	0.72	0.731	0.901	1.08	1.2	1.24	0.986
Calu-6	0.913	0.935	0.855	0.84	–	–	–	–	–	–	–	–	–	–	–	–	0.909
ChaGo-K-1	–	–	–	–	0.679	0.633	0.561	0.577	0.656	0.606	0.539	0.471	0.253	0.255	0.262	0.27	–
EBC-1	0.726	0.822	0.687	0.702	–	–	–	–	–	–	–	–	–	–	–	–	0.911
EKVX	0.851	0.727	0.715	0.637	0.74	0.783	–	0.902	0.6	0.714	–	0.677	0.34	0.394	0.335	0.406	0.756
EMC-BAC-2	0.72	0.737	0.743	0.692	1.05	1.14	1.12	1.11	0.353	0.363	0.343	0.271	0.44	0.414	0.38	0.308	0.814
EPLC-272H	1.12	1.02	–	1.24	0.159	0.266	0.292	0.161	0.256	0.305	0.273	0.263	0.448	0.365	0.334	0.297	0.973
H3255	0.847	0.892	0.912	0.859	0.534	0.881	0.833	0.704	0.496	0.582	0.55	0.629	0.494	0.544	0.553	0.557	0.841
HARA	0.853	0.883	0.766	0.754	0.787	0.606	0.478	0.349	0.295	0.479	0.401	0.175	0.254	0.256	0.213	0.274	1.05
HCC-15	0.86	0.878	0.845	0.827	0.3	0.28	0.382	0.497	0.501	0.64	0.624	0.592	0.22	0.214	0.231	0.234	0.893
HCC-44	0.53	0.62	0.464	0.359	0.98	1.04	1.02	0.911	0.373	0.587	0.4	0.27	0.661	0.548	0.682	0.601	0.646
HCC-78	0.409	–	0.213	0.215	–	–	–	–	–	0.372	0.341	0.395	–	0.84	0.902	0.88	0.464
HCC-366	0.434	0.598	0.545	0.291	–	–	–	–	0.809	1.05	0.842	0.523	0.172	0.153	0.202	0.156	0.673
HCC-827	1.05	0.94	0.986	0.886	0.581	0.76	0.487	0.552	0.687	0.83	0.721	0.841	0.23	0.256	0.232	0.212	0.999
HOP-62	1.09	1.02	1.01	0.889	0.84	0.857	0.884	0.747	0.636	0.815	0.79	0.625	0.304	0.28	0.337	0.319	1.06
IA-LM	0.509	0.58	0.621	0.685	–	–	–	–	–	–	–	–	–	–	–	–	0.685
LC-2-ad	–	0.731	0.668	0.595	0.8	0.987	0.98	0.869	0.723	0.711	0.635	0.517	0.32	0.272	0.28	0.269	0.786

Cell Line	relative viability (TGX 221 + Linsitinib; first compound 0.253 µM)	relative viability (TGX 221 + Linsitinib; first compound 0.8 µM)	relative viability (TGX 221 + Linsitinib; first compound 2.53 µM)	relative viability (TGX 221 + Linsitinib; first compound 8 µM)	relative viability ([1]; first compound 0.08 µM)	relative viability ([1]; first compound 0.253 µM)	relative viability ([1]; first compound 0.8 µM)	relative viability ([1]; first compound 2.53 µM)	relative viability (Ricolinostat + OSI-027; first compound 0.08 µM)	relative viability (Ricolinostat + OSI-027; first compound 0.253 µM)	relative viability (Ricolinostat + OSI-027; first compound 0.8 µM)	relative viability (Ricolinostat + OSI-027; first compound 2.53 µM)	relative viability ([2]; first compound 0.08 µM)	relative viability ([2]; first compound 0.253 µM)	relative viability ([2]; first compound 0.8 µM)	relative viability ([2]; first compound 2.53 µM)	relative viability (TGX 221 + Linsitinib; first compound 0.08 µM)
LCLC-97TM1	0.187	0.199	0.167	0.188	0.651	0.752	0.565	0.561	0.271	0.524	0.541	0.27	0.152	0.157	0.137	0.157	0.145
LCLC-103H	1.12	0.93	0.846	1.2	0.869	0.887	0.862	0.829	0.363	0.447	0.48	0.444	0.488	0.463	0.476	0.516	1.11
LK-2	0.548	0.627	0.625	0.625	0.18	0.191	0.168	0.177	0.202	0.234	0.212	0.208	0.217	0.256	0.231	0.216	0.523
LOU-NH91	0.912	0.931	0.917	0.794	0.322	0.371	0.347	0.313	0.511	0.713	0.672	0.647	–	0.327	0.378	0.367	0.974
LU99A	0.481	0.512	0.536	0.492	0.254	0.224	0.239	0.25	0.243	0.296	0.305	0.249	0.188	0.159	0.184	0.156	0.478
LXF-289	0.965	0.98	0.931	1	0.579	0.655	0.692	0.672	0.668	0.906	0.782	0.749	0.935	0.775	0.895	0.792	0.956
NCI-H23	0.532	0.525	0.531	0.477	–	0.203	0.214	0.169	0.496	0.571	0.578	0.465	0.562	0.642	0.684	0.737	0.471
NCI-H322M	0.732	0.708	0.698	1.02	–	0.974	0.988	1.09	–	0.598	0.532	0.51	0.61	0.607	0.639	0.646	0.849
NCI-H358	0.684	0.732	0.65	0.588	–	0.269	0.482	0.254	0.584	0.802	0.734	0.954	0.179	0.194	0.183	0.156	0.757
NCI-H441	0.644	0.485	0.571	0.548	–	0.376	0.328	0.373	–	0.725	0.595	0.59	0.267	0.25	0.289	0.272	0.623
NCI-H460	0.641	0.693	0.622	0.592	0.0274	0.0237	0.0543	0.0362	0.507	0.637	0.622	0.596	0.0618	0.0585	0.0722	0.0727	0.677
NCI-H520	0.767	0.779	0.679	0.63	–	0.208	0.295	0.233	–	0.259	0.231	0.228	–	0.762	0.744	0.628	0.929
NCI-H522	–	–	–	–	1.39	1.01	1.28	1.19	0.822	0.736	0.665	0.69	0.972	1.03	1.05	0.924	–
NCI-H596	0.913	0.972	0.972	0.985	1.12	0.83	0.881	1.1	0.801	0.82	0.845	0.5	0.511	0.527	0.504	0.52	1.13
NCI-H727	0.29	0.264	0.269	0.403	0.314	0.283	0.236	0.379	0.389	0.671	0.551	0.657	–	–	–	–	0.406
NCI-H1299	1.04	1.04	0.902	0.969	–	–	–	–	–	–	–	–	–	–	–	–	0.976
NCI-H1623	–	–	–	–	0.481	0.517	0.541	0.523	0.389	0.428	0.414	0.312	–	–	–	–	–
NCI-H1648	–	–	–	–	–	–	–	–	0.28	0.281	0.249	0.259	–	0.596	0.629	0.521	–
NCI-H1650	–	–	–	–	0.184	0.191	0.225	0.17	0.471	0.586	0.459	0.361	0.379	0.403	0.337	0.349	–
NCI-H1703	0.522	0.48	0.487	0.636	–	–	–	–	–	–	–	–	–	–	–	–	0.678
NCI-H2170	–	–	–	–	0.616	0.717	0.661	0.953	0.656	0.718	0.725	0.891	0.247	0.242	0.281	0.244	–
NCI-H2342	–	–	–	–	0.541	0.78	0.835	0.762	0.515	0.588	0.575	0.633	0.734	0.785	0.719	0.637	–
SW 900	–	–	–	–	0.166	0.164	0.183	0.17	0.462	0.808	0.562	0.535	0.496	0.488	0.491	0.441	–
